Bridge positions count the residues as written; N and C are the ends. Square brackets hold non-standard residues; d marks the D form. Peptide text beside a SMILES is read from it. * marks the point of attachment. Octanoyl(3R-OH) = CCCCC[C@@H](O)CC(=O)*; Myristoyl = CCCCCCCCCCCCCC(=O)*; Orn = NCCC[C@H](N)C(=O)O; Dab = NCC[C@H](N)C(=O)O; Dap = NC[C@H](N)C(=O)O
Tests used:
[1] = tested on: Candida albicans ATCC 10231; assay: MIC assay (YPD broth); format: cell-based; conditions: ATCC 10231, 16 h
Method: (§1) All MIC assays were performed two independent times (n = 2) in 96‐well plates using a broth micro‐dilution method. The lowest concentration of that inhibited visible microbial growth was recorded as the MIC value.
For fungal strains, overnight cultures were diluted 2000‐fold in YPD broth. 100 µL of diluted cells was mixed with 100 µL of YPD broth containing each peptide ranging from […] 64 to 0.125 µg mL^−1 at 2‐fold serial dilutions.

[2] = tested on: Streptococcus pyogenes ATCC 19615; assay: microbe, parasite or virus in culture; format: cell-based; conditions: ATCC 19615, 16 h
Method: as §1
(§2) For most of bacterial strains, overnight cultures were diluted 5000‐fold in LB broth. For E. faecium and S. aureus, overnight cultures were diluted 1000‐ and 10000‐fold in LB broth, respectively. 100 µL of diluted cells was mixed with 100 µL of LB broth containing each peptide ranging from 64 to 0.125 µg mL^−1 at 2‐fold serial dilutions.

[3] = tested on: Klebsiella pneumoniae CRKP 5452; assay: microbe, parasite or virus in culture; format: cell-based; conditions: CRKP 5452, 16 h
Method: as §1, §2

[4] = tested on: Acinetobacter baumannii 1104008; assay: microbe, parasite or virus in culture; format: cell-based; conditions: 1104008, 16 h
Method: as §1, §2

[5] = tested on: Staphylococcus aureus USA300; assay: microbe, parasite or virus in culture; format: cell-based; conditions: USA300, 16 h
Method: as §1, §2

HeLa cells = assay: Cytotoxicity assay (CCK-8); format: cell-based, human; conditions: 48 h
Method: The cytotoxicity of each synAQU peptide was assessed using a cell counting kit‐8 (CCK‐8) assay. HeLa cells were first seeded in a 96‐well flat‐bottom microtiter plate with a density of ∼5000 cells per well and incubated in the DMEM medium supplemented with 10% FBS at 37 °C with 5% CO2 for 24 h. […] All cytotoxicity experiments were done in triplicate (n = 3) and repeated two independent times (n = 2).

CCCCCCCCCCCCCC(=O)N[C@@H](Cc1ccccc1)C(=O)N[C@@H](CCCN)C(=O)N[C@@H](CCCN)C(=O)N[C@@H](C(=O)N[C@H](C(=O)N[C@@H](CC(C)C)C(=O)N[C@H](Cc1ccc(O)cc1)C(=O)N[C@@H](CCN)C(=O)NCC(=O)O)[C@@H](C)CC)C(C)C [synAQU2-L] (Myristoyl-F[Orn][Orn][dV]IL[dY][Dab]G-OH)
> 64 µg/mL: MIC (μg/mL) C. albicans ATCC 10231 [1] | MIC (μg/mL) S. pyogenes ATCC 19615 [2] | MIC (μg/mL) K. pneumoniae CRKP 5452 [3] | MIC (μg/mL) A. baumannii 1104008 [4] | MIC (μg/mL) S. aureus USA300 [5] | MIC (μg/mL) Hela (HeLa cells)

CCCCCCCCCCCCCC(=O)N[C@@H](Cc1ccccc1)C(=O)N[C@H]1CCCNC(=O)CNC(=O)[C@H](CCN)NC(=O)[C@@H](Cc2ccc(O)cc2)NC(=O)[C@H](CC(C)C)NC(=O)[C@H]([C@@H](C)CC)NC(=O)[C@@H](C(C)C)NC(=O)[C@H](CCCN)NC1=O [synAQU2-C2] (Myristoyl-F[Orn][Orn][dV]IL[dY][Dab]G; lactam 2-C (inferred))
> 64 µg/mL: MIC (μg/mL) C. albicans ATCC 10231 [1] | MIC (μg/mL) S. pyogenes ATCC 19615 [2] | MIC (μg/mL) K. pneumoniae CRKP 5452 [3] | MIC (μg/mL) A. baumannii 1104008 [4] | MIC (μg/mL) S. aureus USA300 [5] | MIC (μg/mL) Hela (HeLa cells)

CCCCC[C@@H](O)CC(=O)N[C@H]1CNC(=O)[C@H](CC(=O)O)NC(=O)[C@H](C(C)C)NC(=O)[C@@H](CC(C)C)NC(=O)[C@H](CN)NC(=O)[C@@H](Cc2ccccc2)NC(=O)[C@H]([C@@H](C)O)NC(=O)[C@H](CCN)NC(=O)[C@H](Cc2ccccc2)NC1=O [synAQU3-C1] ({Octanoyl(3R-OH)}-[Dap]F[Dab]T[dF][Dap][dL]VD; lactam 1-C (inferred))
> 64 µg/mL: MIC (μg/mL) C. albicans ATCC 10231 [1] | MIC (μg/mL) S. pyogenes ATCC 19615 [2] | MIC (μg/mL) K. pneumoniae CRKP 5452 [3] | MIC (μg/mL) A. baumannii 1104008 [4] | MIC (μg/mL) S. aureus USA300 [5] | MIC (μg/mL) Hela (HeLa cells)

CCCCC[C@@H](O)CC(=O)N[C@@H](CN)C(=O)N[C@@H](Cc1ccccc1)C(=O)N[C@H]1CCNC(=O)[C@H](CC(=O)O)NC(=O)[C@H](C(C)C)NC(=O)[C@@H](CC(C)C)NC(=O)[C@H](CN)NC(=O)[C@@H](Cc2ccccc2)NC(=O)[C@H]([C@@H](C)O)NC1=O [synAQU3-C3] ({Octanoyl(3R-OH)}-[Dap]F[Dab]T[dF][Dap][dL]VD; lactam 3-C (inferred))
> 64 µg/mL: MIC (μg/mL) C. albicans ATCC 10231 [1] | MIC (μg/mL) S. pyogenes ATCC 19615 [2] | MIC (μg/mL) K. pneumoniae CRKP 5452 [3] | MIC (μg/mL) A. baumannii 1104008 [4] | MIC (μg/mL) S. aureus USA300 [5] | MIC (μg/mL) Hela (HeLa cells)
